Results on four molecules are retold here after US20250368714A1, “TREATMENT OF CANCER” (Immutep S.A.S., priority 2022, published 2025).

Where two headings read alike, the source gives them in different places.

Assay [1] has as its system unresectable locally advanced or metastatic PD-L1 positive TNBC. To be noted: PD-L1 inhibitor plus paclitaxel; cited from earlier work.
Assay [2] concerns Patients with HR+ HER2-Neg/Low after Failure of ET Based Therapy. The following applies: No prior CDK4/6; cited from earlier work.
For assay [3], the system named is HER2 negative hormone receptor-positive metastatic breast cancer patients. Nature of the assay: AIPAC Phase IIb study: paclitaxel+IMP321 vs paclitaxel+placebo, overall survival. The class given is in vivo, human. To be noted: AIPAC paclitaxel plus placebo group. The protocol: A multicentre, placebo-controlled, double-blind, 1:1 randomised Phase IIb study in female HER2 negative hormone receptor-positive metastatic breast cancer patients was conducted. The study comprised two stages: • stage 1 which was an open-label, safety run-in stage consisting of cohorts 1 and 2 to confirm the recommended Phase II dose (RPTD) of IMP321 in combination with paclitaxel; and • stage 2 which was a placebo-controlled, double-blind randomisation stage, paclitaxel+IMP321 at the RPTD compared to paclitaxel+placebo.
The chemo-immunotherapy phase consisted of 6 cycles of 4 weeks. Patients received weekly paclitaxel at Days 1, 8 and 15 with adjunctive treatment of study agent (IMP321) on Days 2 and 16 of each 4-week cycle. After completion of the 6-cycle chemo-immunotherapy phase, responding or stable patients received study agent (IMP321) every 4 weeks during the maintenance phase for an additional period of up to 12 injections.
The chemo-immunotherapy phase consisted of 6 cycles of 4 weeks. Patients received weekly paclitaxel at Days 1, 8 and 15 with adjunctive treatment of study agent (placebo) on Days 2 and 16 of each 4-week cycle.
After completion of the 6-cycle chemo-immunotherapy phase, responding or stable patients received study agent (placebo) every 4 weeks during the maintenance phase for an additional period of up to 12 injections. […]

The subject of assay [4] is Patients with HR+ HER2-Neg/Low after Failure of ET Based Therapy. In words: Efficacy of single agent chemotherapy after failure of ET based therapy. The class given is in vivo, human. To be noted: Prior CDK4/6. The source says:
Efficacy of Single Agent Chemotherapy for Patients with HR^+ HER2-Neg/Low after Failure of ET Based Therapy

Assay [5] concerns locally recurrent unresectable or metastatic TNBC. To be noted: patients with CPS of 10 or more; cut-off Dec. 11, 2019; placebo-chemotherapy 5.6; cited from earlier work.

In the case of “atezolizumab: PD-L1 inhibitor tested plus paclitaxel in IMpassion131”, in assay [1], the “PFS over paclitaxel alone” value is “did not demonstrate a statistically significant improvement in PFS”.
Take `CC(=O)O[C@H]1C(=O)[C@@]2(C)[C@H]([C@H](OC(=O)c3ccccc3)[C@]3(O)C[C@H](OC(=O)[C@H](O)[C@@H](NC(=O)c4ccccc4)c4ccccc4)C(C)=C1C3(C)C)[C@]1(OC(C)=O)CO[C@@H]1C[C@@H]2O` [Paclitaxel, paclitaxel]: in assay [2], the “ORR (%)” value is reported as 21-51%, the “OS (months)” value is 20.4-25.8 months and the “PFS (months)” value is recorded as 5.9-8.8 months. Also, the OS in assay [3] (no prior CDK4/6 therapy) is on record as 20.4 months. For the same molecule, the “median OS” value in assay [3] (patients pre-treated with CDK4/6) was determined as 14.9 months. In assay [4], the “ORR (%)” value came out at 36%, the “OS (months)” value turned out to be 14.9 months and the “PFS (months)” value amounted to 6.7 months.
As for “pembrolizumab-chemotherapy: pembrolizumab in combination with chemotherapy (paclitaxel, nab-paclitaxel, or carboplatin-gemcitabine), KEYNOTE-355”, the “median PFS” value in assay [5] is 9.7 months.
As to `CCCCCOC(=O)Nc1nc(=O)n([C@@H]2O[C@H](C)[C@@H](O)[C@H]2O)cc1F` [Capecitabine, capecitabine], in assay [2], the “ORR (%)” value is on record as 19-30%, the “OS (months)” value was 9.3-18 months and the “PFS (months)” value is on record as 2.8-5.9 months.
